Data set [1] is described as follows: physchem. Particulars: cell-culture medium.
Data set [2] in a line: physchem. The conditions noted are these: PBS.
Data set [3] can be described thus: in vitro. Particulars: dog, MDCK-MDR1.
Data set [4] can be described thus: Tmax in Sprague-Dawley rat at 5 mg/kg, po measured after 24 hrs by LC-MS/MS analysis. Particulars: in vivo. The data set is classed as ADME, organism-based.
Data set [5] can be described thus: MRT in Sprague-Dawley rat at 2 mg/kg, iv measured after 24 hrs by LC-MS/MS analysis. It is filed as ADME, organism-based. The conditions noted are these: in vivo.
Data set [6] in a line: Apparent volume of distribution in Sprague-Dawley rat at 2 mg/kg, iv measured after 24 hrs by LC-MS/MS analysis. It is filed as ADME, organism-based. The conditions noted are these: in vivo, read-out: Vz.
A short description of data set [7]: Oral bioavailability in Sprague-Dawley rat at 5 mg/kg measured after 24 hrs by LC-MS/MS analysis. The data set is classed as ADME, organism-based. Particulars: in vivo.
Data set [8] is described as follows: Half-life in Sprague-Dawley rat at 5 mg/kg, po measured after 24 hrs by LC-MS/MS analysis. It is filed as ADME, organism-based. Particulars: in vivo.
Data set [9] can be described thus: in vitro. The conditions noted are these: dog, MDCK-MDR1. This is another data set of the same source.
A short description of data set [10]: AUC (0 to infinity) in Sprague-Dawley rat at 5 mg/kg, po measured after 24 hrs by LC-MS/MS analysis. Particulars: in vivo. It is filed as ADME, organism-based.
A short description of data set [11]: in vitro. Particulars: dog, MDCK-MDR1. This is another data set of the same source.
Data set [12] can be described thus: physchem. Particulars: PBS. The source holds these as a separate data set.
A short description of data set [13]: MRT in Sprague-Dawley rat at 5 mg/kg, po measured after 24 hrs by LC-MS/MS analysis. It is filed as ADME, organism-based. The conditions noted are these: in vivo.
The nature of data set [14]: AUC (0 to infinity) in Sprague-Dawley rat at 2 mg/kg, iv measured after 24 hrs by LC-MS/MS analysis. Particulars: in vivo. It is filed as ADME, organism-based.
Data set [15] is described as follows: Half-life in Sprague-Dawley rat at 2 mg/kg, iv measured after 24 hrs by LC-MS/MS analysis. It is filed as ADME, organism-based. Particulars: in vivo.
A short description of data set [16]: Volume of distribution at steady state in Sprague-Dawley rat at 2 mg/kg, iv measured after 24 hrs by LC-MS/MS analysis. It is filed as ADME, organism-based. Particulars: in vivo, read-out: Vdss.
Data set [17] can be described thus: in vitro. The conditions noted are these: mouse, mouse liver microsomes.
A short description of data set [18]: Clearance in Sprague-Dawley rat at 2 mg/kg, iv measured after 24 hrs by LC-MS/MS analysis. It is filed as ADME, organism-based. Particulars: in vivo.
The nature of data set [19]: AUC (0 to t) in Sprague-Dawley rat at 2 mg/kg, iv measured after 24 hrs by LC-MS/MS analysis. It is filed as ADME, organism-based. Particulars: in vivo.
The nature of data set [20]: physchem. Particulars: PBS. The source holds these as a separate data set.
Data set [21] is described as follows: AUC (0 to t) in Sprague-Dawley rat at 5 mg/kg, po measured after 24 hrs by LC-MS/MS analysis. It is filed as ADME, organism-based. Particulars: in vivo.
Data set [22] is described as follows: Cmax in Sprague-Dawley rat at 5 mg/kg, po measured after 24 hrs by LC-MS/MS analysis. It is filed as ADME, organism-based. Particulars: in vivo.
Data set [23] is described as follows: in vitro. Particulars: dog, MDCK-MDR1. The source holds these as a separate data set.
The conditions of data set [24]: dog, mdck-mdr1, 10 µM.

These results are taken from ChEMBL document CHEMBL5625196, “Cell-active, irreversible covalent inhibitors that selectively target the catalytic lysine of EGFR by using fluorosulfate-based SuFEx chemistry” (Eur J Med Chem, 2023).

Turning to `C=CS(=O)(=O)Nc1cccc(Nc2ncnc3cc(OCCOC)c(OCCOC)cc23)c1`, the half-life in “physchem [1]” and in the data set “physchem [2]” was over 24 h throughout.
`COCCOc1cc2ncnc(Nc3cccc(OS(=O)(=O)F)c3)c2cc1OCCOC` came in with a Papp B→A at 10 µM in “in vitro [3]” of 3.92 ×10⁻⁶ cm/s. In addition, the half-life was 24 h in “physchem [1]”; 0.81 h in data set [8]; over 8 h in the data set “physchem [2]”; over 8 h in the data set “physchem [12]”; 0.93 h in [15]; over 12 h in the data set “physchem [20]”. Besides, the Tmax in [4] worked out at 2.33 h. Further, the results for the MRT in data set [5] and in [13] were 1.16 h and 2.48 h, respectively. Besides, the Vd in [6] was determined as 1.4 L/kg; in [16], 1.22 L/kg. Moreover, in data set [7], the bioavailability was found to be 32%. The figures for the recovery at 10 µM in “in vitro [9]” and in “in vitro [11]” were 81.2% and 86.8%, respectively. Further, the AUC(0-inf) in data set [10] was determined as 1540 ng·h/mL; in data set [14], 1920 ng·h/mL. Besides, the half-life at 1 h in “in vitro [17]” was determined as 0.493 h. This compound gave a clearance in data set [18] of 17.4 mL/min/kg. Moreover, the AUC(0-t) at 24 h in data set [19] was 1920 ng·h/mL; in data set [21], 1530 ng·h/mL. In data set [22], this compound came in with a Cmax of 444 ng/mL. Moreover, in the data set “in vitro [23]”, the Papp A→B at 10 µM is 1.9 ×10⁻⁶ cm/s.
Consider `C[C@H]1O[C@@H](O[C@H]2[C@@H](O)C[C@H](O[C@H]3[C@@H](O)C[C@H](O[C@H]4CC[C@@]5(C)[C@H](CC[C@@H]6[C@@H]5C[C@@H](O)[C@]5(C)[C@@H](C7=CC(=O)OC7)CC[C@]65O)C4)O[C@@H]3C)O[C@@H]2C)C[C@H](O)[C@@H]1O` [DIGOXIN], for which, in the data set “in vitro [3]”, the Papp B→A at 10 µM amounted to 18.5 ×10⁻⁶ cm/s. Besides, the results for the recovery at 10 µM in “in vitro [9]” and in the data set “in vitro [11]” were 97.9% and 105%, respectively. The Papp in data set [24] is reported as 6.41 10^-6 cm/s.
